What all share (assay type): biochemical
For one assay, the target named is T1, JAK2 (Homo sapiens, UniProt O60674).
T1 construct: purchased Invitrogen
Briefly: JAK2 enzyme inhibition test (LANCE method). Conditions: 1 μM test compound; for inhibition at 1 µM: read-out: JAK2 enzyme inhibitory activity (%, 1 μM). A digest of the protocol: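 Recombinant JAK2 (6 ng/mL solution) phosphorylated ULight-JAK1 peptide (300 nM solution) with ATP (45 μM solution) in pH 7.5 HEPES/MgCl2/DTT buffer for 1 hr at room temperature. After EDTA stop and europium anti-phosphotyrosine antibody for 1 hr, TR-FRET read at 665 nm; inhibition relative to enzyme-free wells as 100%.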

The next assay has as its target T2, JAK3 (Homo sapiens, UniProt P52333).
T2 construct: purchased Invitrogen
T2 sequence (P52333 1-1124): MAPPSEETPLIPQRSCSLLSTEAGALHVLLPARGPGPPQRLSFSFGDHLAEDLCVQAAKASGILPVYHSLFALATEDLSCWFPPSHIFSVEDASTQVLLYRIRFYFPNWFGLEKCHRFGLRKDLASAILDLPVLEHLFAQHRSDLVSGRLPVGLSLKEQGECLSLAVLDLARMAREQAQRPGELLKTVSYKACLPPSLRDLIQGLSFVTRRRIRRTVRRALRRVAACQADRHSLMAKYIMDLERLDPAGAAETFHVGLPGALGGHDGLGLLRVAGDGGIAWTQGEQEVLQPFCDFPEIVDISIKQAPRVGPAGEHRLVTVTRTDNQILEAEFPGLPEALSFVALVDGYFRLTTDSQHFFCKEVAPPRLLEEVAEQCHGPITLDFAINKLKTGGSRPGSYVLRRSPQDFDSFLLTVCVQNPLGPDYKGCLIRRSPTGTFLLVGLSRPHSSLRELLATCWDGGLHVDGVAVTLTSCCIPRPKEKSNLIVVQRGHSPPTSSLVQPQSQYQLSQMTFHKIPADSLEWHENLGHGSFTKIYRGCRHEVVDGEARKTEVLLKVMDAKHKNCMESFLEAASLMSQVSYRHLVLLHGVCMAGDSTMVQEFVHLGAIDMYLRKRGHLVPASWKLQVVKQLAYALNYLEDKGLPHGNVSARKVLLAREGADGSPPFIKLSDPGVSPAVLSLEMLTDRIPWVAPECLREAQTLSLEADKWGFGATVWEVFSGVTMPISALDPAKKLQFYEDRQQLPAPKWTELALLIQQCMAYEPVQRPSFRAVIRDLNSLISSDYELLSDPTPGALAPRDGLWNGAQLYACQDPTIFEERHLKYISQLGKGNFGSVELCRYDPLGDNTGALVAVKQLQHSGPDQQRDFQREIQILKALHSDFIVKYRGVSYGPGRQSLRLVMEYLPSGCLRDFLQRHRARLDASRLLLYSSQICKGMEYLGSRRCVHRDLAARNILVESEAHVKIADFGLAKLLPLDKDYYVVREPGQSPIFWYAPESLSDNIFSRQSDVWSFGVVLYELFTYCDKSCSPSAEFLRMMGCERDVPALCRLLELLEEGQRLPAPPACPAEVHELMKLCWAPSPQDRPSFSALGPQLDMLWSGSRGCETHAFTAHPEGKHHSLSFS
Briefly: JAK3 enzyme inhibition test (LANCE method). Conditions: 1 μM test compound; for inhibition at 1 µM: read-out: JAK3 enzyme inhibitory activity (%, 1 μM). A digest of the protocol:
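Recombinant JAK3 (12 ng/mL solution) with ULight-JAK1 peptide (300 nM solution) and ATP (15 μM solution) in HEPES pH 7.5 buffer, 1 h at room temperature. EDTA stop with Eu-anti-phosphotyrosine antibody; TR-FRET at 665 nm. Inhibition relative to enzyme-free wells as 100%.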

For another assay, the target named is T3, TYK2 (Homo sapiens, UniProt P29597).
T3 construct: purchased Invitrogen
T3 sequence (P29597 whole entry): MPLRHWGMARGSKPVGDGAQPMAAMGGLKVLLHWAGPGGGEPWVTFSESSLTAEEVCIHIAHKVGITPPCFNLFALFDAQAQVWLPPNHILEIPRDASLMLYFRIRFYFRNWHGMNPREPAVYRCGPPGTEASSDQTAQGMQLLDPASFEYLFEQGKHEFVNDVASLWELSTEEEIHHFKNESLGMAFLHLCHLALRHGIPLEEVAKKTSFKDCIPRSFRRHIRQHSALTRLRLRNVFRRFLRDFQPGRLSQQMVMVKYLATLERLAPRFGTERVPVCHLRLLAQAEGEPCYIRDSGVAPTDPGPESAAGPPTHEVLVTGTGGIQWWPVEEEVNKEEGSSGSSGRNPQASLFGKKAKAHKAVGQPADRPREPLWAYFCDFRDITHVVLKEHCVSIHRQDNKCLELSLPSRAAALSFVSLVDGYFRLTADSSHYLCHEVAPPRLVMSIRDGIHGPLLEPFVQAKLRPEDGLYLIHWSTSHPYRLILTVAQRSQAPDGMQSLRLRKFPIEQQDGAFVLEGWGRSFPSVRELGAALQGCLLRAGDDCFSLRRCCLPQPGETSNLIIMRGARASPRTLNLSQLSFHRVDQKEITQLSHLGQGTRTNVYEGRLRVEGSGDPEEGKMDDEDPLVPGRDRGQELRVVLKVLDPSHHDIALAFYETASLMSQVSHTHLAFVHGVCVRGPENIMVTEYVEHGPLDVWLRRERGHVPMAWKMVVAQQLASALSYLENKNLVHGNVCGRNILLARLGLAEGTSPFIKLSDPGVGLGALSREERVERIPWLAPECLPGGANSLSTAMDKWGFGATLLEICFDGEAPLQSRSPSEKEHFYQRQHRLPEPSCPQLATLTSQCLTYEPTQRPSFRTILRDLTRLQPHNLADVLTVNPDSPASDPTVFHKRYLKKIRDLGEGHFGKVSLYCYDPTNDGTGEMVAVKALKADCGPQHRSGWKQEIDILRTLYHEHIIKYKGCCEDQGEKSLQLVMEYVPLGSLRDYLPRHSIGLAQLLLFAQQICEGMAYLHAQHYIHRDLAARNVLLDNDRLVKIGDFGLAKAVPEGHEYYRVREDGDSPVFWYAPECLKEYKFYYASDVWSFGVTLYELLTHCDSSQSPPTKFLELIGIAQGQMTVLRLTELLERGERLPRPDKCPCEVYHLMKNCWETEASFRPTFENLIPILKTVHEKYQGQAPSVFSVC
Briefly: TYK2 enzyme inhibition test (LANCE method). The conditions noted are these: 1 μM test compound; for inhibition at 1 µM: read-out: TYK2 enzyme inhibitory activity (%, 1 μM). A digest of the protocol:
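Recombinant TYK2 (375 ng/mL working solution) with ULight-JAK1 peptide (300 nM working solution) and ATP (30 μM working solution) in HEPES pH 7.5 buffer with MgCl2, EGTA, DTT, Tween20, BSA, reacted 1 h at RT. EDTA-stopped, Eu-anti-phosphotyrosine TR-FRET read at 665 nm; inhibition relative to enzyme-free wells as 100%.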
(In TR-FRET formats the signal depends on donor and acceptor labels being close together.)

In another assay the target is T4, JAK1 (Homo sapiens, UniProt P23458).
T4 construct: purchased Invitrogen
T4 sequence (P23458 whole entry): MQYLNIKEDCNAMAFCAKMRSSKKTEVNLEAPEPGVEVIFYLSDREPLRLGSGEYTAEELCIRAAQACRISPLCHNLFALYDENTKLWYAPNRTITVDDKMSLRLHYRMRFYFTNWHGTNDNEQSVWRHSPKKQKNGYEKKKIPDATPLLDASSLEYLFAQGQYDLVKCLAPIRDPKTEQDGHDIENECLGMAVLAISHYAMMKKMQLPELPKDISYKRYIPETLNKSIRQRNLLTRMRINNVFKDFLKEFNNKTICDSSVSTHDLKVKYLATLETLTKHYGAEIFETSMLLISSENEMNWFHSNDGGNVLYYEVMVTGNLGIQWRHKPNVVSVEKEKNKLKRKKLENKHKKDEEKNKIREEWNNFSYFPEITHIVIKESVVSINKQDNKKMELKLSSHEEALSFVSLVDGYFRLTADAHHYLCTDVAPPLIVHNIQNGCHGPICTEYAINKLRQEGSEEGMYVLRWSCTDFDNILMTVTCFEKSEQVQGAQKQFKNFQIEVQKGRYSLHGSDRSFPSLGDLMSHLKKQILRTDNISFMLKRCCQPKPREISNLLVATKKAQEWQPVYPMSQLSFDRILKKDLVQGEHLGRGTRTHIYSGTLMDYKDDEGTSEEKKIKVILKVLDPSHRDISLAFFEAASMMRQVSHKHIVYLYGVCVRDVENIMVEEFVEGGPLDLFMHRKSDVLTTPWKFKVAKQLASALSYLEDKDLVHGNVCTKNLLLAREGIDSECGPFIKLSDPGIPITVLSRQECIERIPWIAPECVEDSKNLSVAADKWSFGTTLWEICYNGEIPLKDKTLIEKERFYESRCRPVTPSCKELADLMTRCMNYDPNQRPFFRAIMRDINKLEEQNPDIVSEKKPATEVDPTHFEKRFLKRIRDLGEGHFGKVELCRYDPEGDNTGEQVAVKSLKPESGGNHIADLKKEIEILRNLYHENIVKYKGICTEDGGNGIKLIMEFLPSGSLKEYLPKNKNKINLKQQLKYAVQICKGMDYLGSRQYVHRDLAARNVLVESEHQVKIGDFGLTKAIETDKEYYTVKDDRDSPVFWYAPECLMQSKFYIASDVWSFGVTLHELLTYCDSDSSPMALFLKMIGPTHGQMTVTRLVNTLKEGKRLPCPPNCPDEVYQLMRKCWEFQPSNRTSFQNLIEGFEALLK
Briefly: JAK1 enzyme inhibition test (LANCE method). The conditions noted are these: 1 μM test compound; for inhibition at 1 µM: read-out: JAK1 enzyme inhibitory activity (%, 1 μM). A digest of the protocol: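 TR-FRET (LANCE) with ULight-JAK1 peptide (300 nM working solution) and ATP (150 μM working solution) in HEPES pH 7.5, MgCl2, EGTA, DTT buffer; 1 h at room temperature. EDTA stop plus Eu-anti-phosphotyrosine antibody, 665 nm read after 1 h. Inhibition relative to enzyme-free wells as 100%.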

T1 sequence (O60674 whole entry): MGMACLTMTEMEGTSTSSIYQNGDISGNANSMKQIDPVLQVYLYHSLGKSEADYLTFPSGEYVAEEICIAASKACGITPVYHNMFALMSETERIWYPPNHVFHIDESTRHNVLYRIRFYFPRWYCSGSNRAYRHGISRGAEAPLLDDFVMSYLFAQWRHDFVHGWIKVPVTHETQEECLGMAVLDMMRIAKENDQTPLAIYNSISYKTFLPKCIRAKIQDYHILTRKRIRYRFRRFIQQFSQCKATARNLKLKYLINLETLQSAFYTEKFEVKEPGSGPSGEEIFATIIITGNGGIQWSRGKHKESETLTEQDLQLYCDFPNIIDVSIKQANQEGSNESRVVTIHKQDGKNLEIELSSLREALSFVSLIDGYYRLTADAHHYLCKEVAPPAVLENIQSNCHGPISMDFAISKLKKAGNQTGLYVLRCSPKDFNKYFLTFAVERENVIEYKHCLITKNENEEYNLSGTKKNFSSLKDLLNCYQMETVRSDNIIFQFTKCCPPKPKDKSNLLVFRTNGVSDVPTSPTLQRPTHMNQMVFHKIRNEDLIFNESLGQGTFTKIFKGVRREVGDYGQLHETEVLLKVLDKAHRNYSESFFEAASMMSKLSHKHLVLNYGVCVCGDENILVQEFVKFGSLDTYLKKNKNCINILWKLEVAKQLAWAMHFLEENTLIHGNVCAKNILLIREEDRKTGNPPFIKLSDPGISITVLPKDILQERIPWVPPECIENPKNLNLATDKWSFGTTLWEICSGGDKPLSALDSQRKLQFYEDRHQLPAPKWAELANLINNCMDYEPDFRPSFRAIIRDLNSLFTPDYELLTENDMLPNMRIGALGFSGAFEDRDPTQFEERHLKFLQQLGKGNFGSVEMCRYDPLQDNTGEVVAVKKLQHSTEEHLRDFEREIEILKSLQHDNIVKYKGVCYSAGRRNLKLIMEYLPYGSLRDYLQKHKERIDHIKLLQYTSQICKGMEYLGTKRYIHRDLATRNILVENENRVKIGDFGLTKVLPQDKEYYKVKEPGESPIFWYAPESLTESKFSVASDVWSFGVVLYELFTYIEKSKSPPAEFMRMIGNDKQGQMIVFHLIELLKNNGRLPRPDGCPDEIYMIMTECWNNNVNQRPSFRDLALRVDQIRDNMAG

For the compound `CC1CCCCC1n1cc(-c2cc(C(C)(C)O)n(C)n2)c2[nH]nc(N)c2c1=O` (centres unmarked) [Example 118, 3-amino-7-(5-(2-hydroxypropan-2-yl)-1-methyl-1H-pyrazol-3-yl)-5-(2-methylcyclohexyl)-1,5-dihydro-4H-pyrazolo[4,3-c]pyridin-4-one], on JAK2, the “JAK2 enzyme inhibitory activity (%, 1 μM)” value was 97%. Also, the “JAK3 enzyme inhibitory activity (%, 1 μM)” value on JAK3 is listed as 99%. The “TYK2 enzyme inhibitory activity (%, 1 μM)” value at TYK2 was 100%. In addition, the “JAK1 enzyme inhibitory activity (%, 1 μM)” value at JAK1 is 98%.
Take `CC1CCCCC1n1cc(-c2cc(C(C)(C)O)n(C)n2)c2[nH]nc(N)c2c1=O` (centres unmarked) [Example 117, 3-amino-7-(5-(2-hydroxypropan-2-yl)-1-methyl-1H-pyrazol-3-yl)-5-(2-methylcyclohexyl)-1,5-dihydro-4H-pyrazolo[4,3-c]pyridin-4-one]: the inhibition at 1 µM on JAK2 stood at 85%; at JAK3, 97%; at TYK2, 99%; at JAK1, 85%.
Consider `CC(C)C(C1CC1)n1cc(-c2cc(N3CCOCC3)n(C)n2)c2[nH]nc(N)c2c1=O` (centres unmarked) [Example 115, 3-amino-5-(1-cyclopropyl-2-methylpropyl)-7-(1-methyl-5-(morpholin-4-yl)-1H-pyrazol-3-yl)-1,5-dihydro-4H-pyrazolo[4,3-c]pyridin-4-one], for which the inhibition at 1 µM on JAK2 is 91%; on JAK3 it was 99%; on TYK2 it was 100%; on JAK1, 93%.
On to `Cn1nc(-c2cn(C(C3CC3)C3CC3)c(=O)c3c(N)n[nH]c23)cc1N1CCOCC1` [Example 79, 3-amino-5-(dicyclopropylmethyl)-7-(1-methyl-5-(morpholin-4-yl)-1H-pyrazol-3-yl)-1,5-dihydro-4H-pyrazolo[4,3-c]pyridin-4-one], for which the inhibition at 1 µM came out at 99% on JAK2, 100% on JAK3, 99% on TYK2 and 99% at JAK1.
On to `CC(C1CC1)n1cc(-c2cc(CN3CCS(=O)(=O)CC3)n(C)n2)c2[nH]nc(N)c2c1=O` (centres unmarked) [Example 9, 3-amino-5-(1-cyclopropylethyl)-7-(5-((1,1-dioxidothiomorpholin-4-yl)methyl)-1-methyl-1H-pyrazol-3-yl)-1,5-dihydro-4H-pyrazolo[4,3-c]pyridin-4-one], for which the inhibition at 1 µM worked out at 99% at JAK2, 100% on JAK3, 99% at TYK2 and 98% at JAK1.
On to `CC(C)[C@H](C)n1cc(-c2cc(C(=O)N(C)C3CCCC3)n(C)n2)c2[nH]nc(N)c2c1=O` [Example 50, 3-(3-amino-5-((2S)-3-methylbutan-2-yl)-4-oxo-4,5-dihydro-1H-pyrazolo[4,3-c]pyridin-7-yl)-N-cyclopentyl-N,1-dimethyl-1H-pyrazole-5-carboxamide], for which the inhibition at 1 µM was found to be 99% at JAK2, 100% at JAK3, 99% on TYK2 and 96% on JAK1.
For `Cc1cc(-c2cn(C(C3CC3)C3CC3)c(=O)c3c(N)n[nH]c23)nn1C` [Example 173, 3-amino-5-(dicyclopropylmethyl)-7-(1,5-dimethyl-1H-pyrazol-3-yl)-1,5-dihydro-4H-pyrazolo[4,3-c]pyridin-4-one], the inhibition at 1 µM at JAK2 turned out to be 96%; on JAK3, 99%; at TYK2 it was 98%; at JAK1, 98%.
For the compound `CN1CCN(c2cc(-c3cn(C(C4CC4)C4CC4)c(=O)c4c(N)n[nH]c34)nn2C)CC1` [Example 149, 3-amino-5-(dicyclopropylmethyl)-7-(1-methyl-5-(4-methylpiperazin-1-yl)-1H-pyrazol-3-yl)-1,5-dihydro-4H-pyrazolo[4,3-c]pyridin-4-one], the inhibition at 1 µM was determined as 99% on JAK2, 101% at JAK3, 106% on TYK2 and 100% on JAK1.
For `Cn1nc(-c2cn(-c3c(F)cccc3F)c(=O)c3c(N)n[nH]c23)cc1N1CCOCC1` [Example 143, 3-amino-5-(2,6-difluorophenyl)-7-(1-methyl-5-(morpholin-4-yl)-1H-pyrazol-3-yl)-1,5-dihydro-4H-pyrazolo[4,3-c]pyridin-4-one], the inhibition at 1 µM at JAK2 came out at 98%; at JAK3, 99%; at TYK2, 100%; at JAK1, 99%.
Consider `CC1CCCCC1n1cc(-c2cc(N3CCOCC3)n(C)n2)c2[nH]nc(N)c2c1=O` (centres unmarked) [Example 153, 3-amino-5-(2-methylcyclohexyl)-7-(1-methyl-5-(morpholin-4-yl)-1H-pyrazol-3-yl)-1,5-dihydro-4H-pyrazolo[4,3-c]pyridin-4-one], for which, at JAK2, the “JAK2 enzyme inhibitory activity (%, 1 μM)” value came out at 98%. Besides, the “JAK3 enzyme inhibitory activity (%, 1 μM)” value at JAK3 came to 101%. For the same compound, the “TYK2 enzyme inhibitory activity (%, 1 μM)” value on TYK2 was 103%. Moreover, the “JAK1 enzyme inhibitory activity (%, 1 μM)” value on JAK1 was 99%.
In the case of `Cn1nc(-c2cn(C(C3CC3)C3CC3)c(=O)c3c(N)n[nH]c23)cc1N1C2CCC1COC2` [Example 151, 3-amino-5-(dicyclopropylmethyl)-7-(1-methyl-5-(3-oxa-8-azabicyclo[3.2.1]oct-8-yl)-1H-pyrazol-3-yl)-1,5-dihydro-4H-pyrazolo[4,3-c]pyridin-4-one], the inhibition at 1 µM on JAK2 was found to be 100%; at JAK3, 101%; at TYK2 it was 102%; on JAK1, 99%.
The corresponding values for `CC(C1CC1)n1cc(-c2cc(N3CCOCC3)n(C)n2)c2[nH]nc(N)c2c1=O` (racemic) [Example 4, 3-amino-5-(1-cyclopropylethyl)-7-(1-methyl-5-(morpholin-4-yl)-1H-pyrazol-3-yl)-1,5-dihydro-4H-pyrazolo[4,3-c]pyridin-4-one] are 99%, 100%, 99% and 99%.
The corresponding values for `CCOC(=O)C(C(C)C)n1cc(-c2cc(N3CCOCC3)n(C)n2)c2[nH]nc(N)c2c1=O` (centres unmarked) [Example 84, ethyl 2-(3-amino-7-(1-methyl-5-(morpholin-4-yl)-1H-pyrazol-3-yl)-4-oxo-1,4-dihydro-5H-pyrazolo[4,3-c]pyridin-5-yl)-3-methylbutanoate] are 87%, 97%, 83% and 84%.
For the compound `CC(C)C(C(F)F)n1cc(-c2cc(N3CCOCC3)n(C)n2)c2[nH]nc(N)c2c1=O` (centres unmarked) [Example 80, 3-amino-5-(1,1-difluoro-3-methylbutan-2-yl)-7-(1-methyl-5-(morpholin-4-yl)-1H-pyrazol-3-yl)-1,5-dihydro-4H-pyrazolo[4,3-c]pyridin-4-one], the inhibition at 1 µM is 91% on JAK2, 98% at JAK3, 99% at TYK2 and 89% on JAK1.
